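Five concentrations, 48 hours, 96-well plates. Here, GI50 denotes the concentration required for 50% inhibition of growth. TGI denotes the concentration required for complete inhibition of growth.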
What was measured:
Experiment in all cases: growth of human tumour cells (NCI), 48 h
NCI-H522 lung = tested on: NCI-H522 lung
DLD-1 colon = tested on: DLD-1 colon
NCI-H460 lung = tested on: NCI-H460 lung
HOP-18 NSCLC = tested on: HOP-18 NSCLC
HOP-62 NSCLC = tested on: HOP-62 NSCLC
SK-MEL-5 melanoma = tested on: SK-MEL-5 melanoma
HCC-2998 colon = tested on: HCC-2998 colon
A498 renal = tested on: A498 renal
T-47D breast = tested on: T-47D breast
DU-145 prostate = tested on: DU-145 prostate

Compound	TGI (NCI-H522 lung) [µM]	TGI (DLD-1 colon) [µM]	TGI (NCI-H460 lung) [µM]	TGI (HOP-18 NSCLC) [µM]	TGI (HOP-62 NSCLC) [µM]	TGI (SK-MEL-5 melanoma) [µM]	GI50 (NCI-H522 lung) [nM]	GI50 (HCC-2998 colon) [µM]	TGI (HCC-2998 colon) [µM]	GI50 (A498 renal) [µM]	TGI (A498 renal) [µM]	GI50 (NCI-H460 lung) [µM]	GI50 (HOP-62 NSCLC) [µM]	GI50 (SK-MEL-5 melanoma) [nM]	GI50 (T-47D breast) [nM]	TGI (T-47D breast) [µM]	GI50 (DU-145 prostate) [µM]	TGI (DU-145 prostate) [µM]	GI50 (DLD-1 colon) [µM]
N#CC(NNC(=O)c1ccccc1O)c1cccc(O)c1 (stereo not given)	98.5	> 100	> 100	> 100	> 100	> 100	–	–	–	–	–	–	–	–	–	–	–	–	–
CC(C)[C@H]1C(=O)N[C@@H](CCCN=C(N)N)C(=O)NCC(=O)N[C@@H](CC(=O)O)C(=O)N[C@H](Cc2ccccc2)C(=O)N1C	5.7	–	> 100	–	> 100	1.33	2320	> 100	> 100	0.182	1.05	31.6	7.04	366	2870	> 29.4	7.66	70.6	–
O=c1[nH]c2cc3[nH]c4ncccc4c(=O)c3cc2[nH]1	> 10	–	> 10	–	> 10	> 10	–	–	> 10	–	> 10	–	–	–	–	> 10	–	> 10	–
O=C1C2Cc3ccccc3CN2C(=O)N1CCN1CCCC1 (stereo not given)	> 100	> 100	> 100	–	> 100	> 100	–	–	> 100	–	> 100	–	–	–	–	–	–	–	–
COC(=O)c1nc(N)[nH]c(=O)c1CCCCCc1c(C(=O)OC)nc(N)[nH]c1=O	> 50	> 50	> 50	> 50	> 50	> 50	–	–	> 50	–	> 50	–	–	–	–	–	–	–	–
CCN(CC)c1ccc2c(c1)Nc1cc(=C(C#N)C#N)c3ccccc3c1=N2	> 100	> 100	> 100	> 100	> 100	> 100	–	–	> 100	–	> 100	–	–	–	–	–	–	–	–
CCOC(=O)C(=O)Nc1c(C(C)C)cccc1C(C)C	> 100	> 100	> 100	> 100	> 100	> 100	–	–	> 100	–	> 100	–	–	–	–	–	–	–	–
Cc1c2cc[n+](C)cc2c(C)c2c1[nH]c1ccc(O)c(OCC(F)(F)F)c12	3.55	44.4	48.6	–	5.28	11.6	–	–	46.4	–	32	–	–	–	–	–	–	–	–
O=[N+]([O-])c1ccc2c(c1)[O][Sn]([I])([I])[O]2	> 100	> 100	> 100	–	> 100	> 100	61400	> 100	> 100	> 100	> 100	> 100	> 100	> 100000	–	–	–	–	> 100
C[C-](O)O.O/C(=C\[C-](O)c1ccccc1)c1ccccc1.O/C(=C\[C-](O)c1ccccc1)c1ccccc1.[Nd+3] (stereo not given)	28.9	44.2	71	–	15.7	18	3590	2.17	20.2	11.7	43.1	4.99	3.1	5220	–	–	–	–	9.17
CN=C1SC(=Nc2ccc(N(C)C)cc2)N1C	59.3	> 100	> 100	> 100	> 100	> 100	–	–	> 100	–	91.9	–	–	–	–	–	–	–	–
COc1ccc(Cl)cc1Nc1nc(C(F)(F)F)ccc1C(=O)N/N=C/c1cc(OC)c(OC)c(OC)c1	5.83	–	10.1	–	20.5	4.57	2290	2.24	19.7	2.19	7.65	2.68	5.17	1680	1390	8.03	4.27	> 100	–
CC1CCN(CC(=O)N2c3ccccc3Sc3cc4ccccc4cc32)CC1	> 100	–	> 100	–	> 100	> 100	–	–	> 100	–	> 100	–	–	–	–	> 100	–	> 100	–
CCOC(=O)[C@H]1Nc2ccc(OC)cc2C2c3ccccc3CC21 (stereo not given in full)	> 100	> 100	> 100	–	> 100	> 100	–	–	> 100	–	> 100	–	–	–	–	–	–	–	–
CCN(CCNc1ccc(C)c2sc3ccccc3c(=O)c12)CC(C)(C)O	47.8	–	11.2	–	34.3	6.17	14900	8.81	27.3	7.46	21.5	3.24	14.6	2310	13400	47.3	15.4	38.2	–
COc1ccc(C2CC(n3nnnc3-c3ccccc3)=NN2)cc1 (stereo not given)	20.4	–	13.7	–	45.8	7.81	1160	3.41	17.2	18.6	55.1	2.84	12.8	2120	1160	87.3	12.9	49.3	–
COc1ccc2c(c1)[n+]([O-])c(/C(C)=N/NC(=O)CC#N)c[n+]2[O-]	> 100	> 100	> 100	> 100	> 100	> 100	–	–	> 100	–	> 100	–	–	–	–	–	–	–	–
O=Cc1ccc(-c2cccs2)s1	> 100	> 74.9	> 92.4	> 100	> 100	> 88.9	–	–	> 100	–	5.21	–	–	–	–	> 100	–	> 100	–
